In BindingDB's records for doi:10.1016/s0960-894x(02)00682-0 (Bristol-Myers Squibb Pharmaceutical Research Institute, 2002):
Peptide text beside a SMILES is read from it. * marks the point of attachment. X11 = CCCCCC[C@H](N*)B1O[C@@H]2C[C@@H]3C[C@@H](C3(C)C)[C@]2(C)O1; X14 = CCCC[C@H](N*)B1O[C@@H]2C[C@@H]3C[C@@H](C3(C)C)[C@]2(C)O1

Target: T1, Chymotrypsin-C (Homo sapiens, UniProt Q99895)
T1 sequence (Q99895 whole entry): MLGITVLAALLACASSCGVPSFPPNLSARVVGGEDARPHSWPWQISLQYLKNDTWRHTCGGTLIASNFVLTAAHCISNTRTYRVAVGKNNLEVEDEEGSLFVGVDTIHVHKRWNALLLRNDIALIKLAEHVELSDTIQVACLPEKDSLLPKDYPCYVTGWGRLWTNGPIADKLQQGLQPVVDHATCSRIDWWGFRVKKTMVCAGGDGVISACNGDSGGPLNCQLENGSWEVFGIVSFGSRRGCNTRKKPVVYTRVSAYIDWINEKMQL
Test: ChEBML_197808
Description: (§1) Inhibitory concentration against Human pancreatic Serine protease chymotrypsin

| IC50 [µM] | Structure (SMILES) |
| --- | --- |
| 48 | CC(C)[C@H](NC(=O)[C@H](CCC(=O)O)NC(=O)[C@@H](N)CC(=O)O)C(=O)N[C@H](C(=O)N1CCC[C@H]1C(=O)N[C@@H](CCc1ccc(-c2ccccc2)cc1)B1O[C@@H]2C[C@@H]3C[C@@H](C3(C)C)[C@]2(C)O1)C(C)C [Peptide Boronic Acid analogue] |

Target: T1, Chymotrypsin-C
Test: as §1

| IC50 [µM] | Structure (SMILES) |
| --- | --- |
| 16 | CC(C)[C@H](NC(=O)[C@H](CCC(=O)O)NC(=O)[C@@H](N)CC(=O)O)C(=O)N[C@H](C(=O)N1CCC[C@H]1C(=O)N[C@@H](CCc1ccc(C(F)(F)F)cc1)B1O[C@@H]2C[C@@H]3C[C@@H](C3(C)C)[C@]2(C)O1)C(C)C [Peptide Boronic Acid analogue] |
| 1.9 | CC(C)[C@H](NC(=O)[C@H](CCC(=O)O)NC(=O)[C@@H](N)CC(=O)O)C(=O)N[C@H](C(=O)N1CCC[C@H]1C(=O)N[C@@H](CCCCc1ccccc1)B1O[C@@H]2C[C@@H]3C[C@@H](C3(C)C)[C@]2(C)O1)C(C)C [Peptide Boronic Acid analogue] |
| 3.7 | Cc1ccc(CC[C@H](NC(=O)[C@@H]2CCCN2C(=O)[C@@H](NC(=O)[C@@H](NC(=O)[C@H](CCC(=O)O)NC(=O)[C@@H](N)CC(=O)O)C(C)C)C(C)C)B2O[C@@H]3C[C@@H]4C[C@@H](C4(C)C)[C@]3(C)O2)cc1 [Peptide Boronic Acid analogue] |
| 0.42 | CCCCCC[C@H](NC(=O)[C@@H]1CCCN1C(=O)[C@@H](NC(=O)[C@@H](NC(=O)[C@H](CCC(=O)O)NC(=O)[C@@H](N)CC(=O)O)C(C)C)C(C)C)B1O[C@@H]2C[C@@H]3C[C@@H](C3(C)C)[C@]2(C)O1 [Peptide Boronic Acid analogue] (H-DEVVP-X11) |
| > 60 | CC[C@H](NC(=O)[C@@H]1CCCN1C(=O)[C@@H](NC(=O)[C@@H](NC(=O)[C@H](CCC(=O)O)NC(=O)[C@@H](N)CC(=O)O)C(C)C)C(C)C)B1O[C@@H]2C[C@@H]3C[C@@H](C3(C)C)[C@]2(C)O1 [Peptide Boronic Acid analogue] |
| 2.1 | CCCC[C@H](NC(=O)[C@@H]1CCCN1C(=O)[C@@H](NC(=O)[C@@H](NC(=O)[C@H](CCC(=O)O)NC(=O)[C@@H](N)CC(=O)O)C(C)C)C(C)C)B1O[C@@H]2C[C@@H]3C[C@@H](C3(C)C)[C@]2(C)O1 [Peptide Boronic Acid analogue] (H-DEVVP-X14) |

Target: not listed separately
Test: Inhibitory concentration against Human pancreatic Serine protease chymotrypsin

| IC50 [µM] | Structure (SMILES) |
| --- | --- |
| > 60 | CC(C)[C@H](NC(=O)[C@H](CCC(=O)O)NC(=O)[C@@H](N)CC(=O)O)C(=O)N[C@H](C(=O)N1CCC[C@H]1C(=O)N[C@@H](CCc1ccc(C(C)(C)C)cc1)B1O[C@@H]2C[C@@H]3C[C@@H](C3(C)C)[C@]2(C)O1)C(C)C [Peptide Boronic Acid analogue] |
| > 60 | CC(C)[C@H](NC(=O)[C@H](CCC(=O)O)NC(=O)[C@@H](N)CC(=O)O)C(=O)N[C@H](C(=O)N1CCC[C@H]1C(=O)N[C@@H](CCc1ccc(Oc2ccccc2)cc1)B1O[C@@H]2C[C@@H]3C[C@@H](C3(C)C)[C@]2(C)O1)C(C)C [Peptide Boronic Acid analogue] |
| > 60 | CC(C)[C@H](NC(=O)[C@H](CCC(=O)O)NC(=O)[C@@H](N)CC(=O)O)C(=O)N[C@H](C(=O)N1CCC[C@H]1C(=O)N[C@@H](CCc1ccc(C2CCCCC2)cc1)B1O[C@@H]2C[C@@H]3C[C@@H](C3(C)C)[C@]2(C)O1)C(C)C [Peptide Boronic Acid analogue] |
| > 60 | CC(C)c1ccc(CC[C@H](NC(=O)[C@@H]2CCCN2C(=O)[C@@H](NC(=O)[C@@H](NC(=O)[C@H](CCC(=O)O)NC(=O)[C@@H](N)CC(=O)O)C(C)C)C(C)C)B2O[C@@H]3C[C@@H]4C[C@@H](C4(C)C)[C@]3(C)O2)cc1 [Peptide Boronic Acid analogue] |
| 20 | COc1ccc(CC[C@H](NC(=O)[C@@H]2CCCN2C(=O)[C@@H](NC(=O)[C@@H](NC(=O)[C@H](CCC(=O)O)NC(=O)[C@@H](N)CC(=O)O)C(C)C)C(C)C)B2O[C@@H]3C[C@@H]4C[C@@H](C4(C)C)[C@]3(C)O2)cc1 [Peptide Boronic Acid analogue] |
